One test deals with T1, human Kv1.3 (CHO) (Homo sapiens, UniProt P22001).
T1 construct: expressed in transfected cells; host or cells: CHO
Nature of the test: cell-based.

The target in another test is T2, human Kv1.1 (HEK293) (Homo sapiens, UniProt Q09470).
T2 construct: expressed in transfected cells; host or cells: HEK293
Nature of the test: cell-based.

Bridge positions count the residues as written; N and C are the ends. Square brackets hold non-standard residues; d marks the D form. Peptide text beside a SMILES is read from it. 1Nal = N[C@@H](Cc1cccc2ccccc12)C(=O)O Some results are limits rather than exact numbers.

T2 sequence (Q09470 whole entry): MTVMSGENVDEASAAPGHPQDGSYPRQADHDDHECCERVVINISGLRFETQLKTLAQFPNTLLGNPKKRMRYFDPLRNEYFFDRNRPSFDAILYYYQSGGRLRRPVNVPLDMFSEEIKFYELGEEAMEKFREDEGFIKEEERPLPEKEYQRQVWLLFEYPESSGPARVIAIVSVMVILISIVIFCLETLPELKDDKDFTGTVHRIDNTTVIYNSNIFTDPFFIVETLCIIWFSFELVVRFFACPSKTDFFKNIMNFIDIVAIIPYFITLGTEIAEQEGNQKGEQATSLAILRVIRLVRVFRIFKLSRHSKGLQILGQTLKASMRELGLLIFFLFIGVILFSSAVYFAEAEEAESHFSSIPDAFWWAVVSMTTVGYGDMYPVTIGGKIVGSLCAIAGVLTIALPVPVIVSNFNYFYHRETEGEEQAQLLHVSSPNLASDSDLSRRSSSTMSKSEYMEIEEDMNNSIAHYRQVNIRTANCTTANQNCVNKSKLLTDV
T1 sequence (P22001 whole entry): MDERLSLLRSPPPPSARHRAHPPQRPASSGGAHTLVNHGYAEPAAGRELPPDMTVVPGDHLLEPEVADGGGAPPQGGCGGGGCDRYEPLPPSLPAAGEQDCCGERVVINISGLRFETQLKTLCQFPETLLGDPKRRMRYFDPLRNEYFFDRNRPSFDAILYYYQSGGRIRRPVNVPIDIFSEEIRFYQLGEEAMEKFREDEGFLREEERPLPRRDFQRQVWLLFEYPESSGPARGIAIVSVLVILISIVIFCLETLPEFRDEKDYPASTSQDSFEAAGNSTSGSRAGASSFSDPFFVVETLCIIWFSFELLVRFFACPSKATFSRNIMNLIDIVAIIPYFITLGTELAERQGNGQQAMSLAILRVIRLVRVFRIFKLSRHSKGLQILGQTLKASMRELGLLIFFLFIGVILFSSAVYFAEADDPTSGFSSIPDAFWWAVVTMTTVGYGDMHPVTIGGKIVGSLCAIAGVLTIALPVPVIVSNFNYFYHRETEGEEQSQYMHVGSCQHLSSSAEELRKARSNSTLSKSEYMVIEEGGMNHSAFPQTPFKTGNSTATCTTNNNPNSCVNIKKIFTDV

What is called IC50 is the concentration that gives 50% inhibition. For `CC[C@H](C)[C@@H]1NC(=O)[C@H](CCCCN)NC(=O)[C@@H](NC(=O)[C@H](CCCCN)NC(=O)[C@@H](NC(=O)[C@H](CC(N)=O)NC(=O)[C@@H](NC(=O)[C@@H](NC(=O)[C@@H](NC(=O)CN)C(C)C)[C@@H](C)CC)[C@@H](C)CC)C(C)C)CSSC[C@@H]2NC(=O)[C@H](CCCCN)NC(=O)CNC(=O)[C@H](Cc3ccccc3)NC(=O)[C@H](CCCNC(=N)N)NC(=O)[C@H](CCSC)NC(=O)CNC(=O)[C@H](CCC(=O)O)NC(=O)[C@H](CCCCN)NC(=O)[C@H](CCCCN)NC(=O)[C@@H]3CSSC[C@@H](C(=O)N[C@H](C(=O)N4CCC[C@H]4C(=O)N[C@@H](CCCCN)C(=O)O)[C@@H](C)O)NC(=O)[C@H](Cc4c[nH]cn4)NC(=O)[C@H](CSSC[C@H](NC(=O)[C@H](CCC(N)=O)NC(=O)[C@H](CCCNC(=N)N)NC(=O)[C@H](CO)NC1=O)C(=O)N[C@@H](CC(C)C)C(=O)N[C@@H](CCC(=O)O)C(=O)N1CCC[C@H]1C(=O)N3)NC(=O)[C@H](CCCCN)NC(=O)CNC(=O)[C@H](CC(N)=O)NC(=O)[C@H](CCSC)NC2=O` [A21E] (H-GVIINVKCKISRQCLEPCKKEGMRFGKCMNGKCHCTPK-OH; disulfide 8-28, 14-33, 18-35), the results for the IC50 at human Kv1.3 (CHO) and against human Kv1.1 (HEK293) were 7.37 pM and less than 1.52 pM, respectively.
The matching figures for `CC[C@H](C)[C@@H]1NC(=O)[C@H](CCCCN)NC(=O)[C@@H](NC(=O)[C@H](CCCCN)NC(=O)[C@@H](NC(=O)[C@H](CC(N)=O)NC(=O)[C@@H](NC(=O)[C@@H](NC(=O)[C@@H](NC(=O)CN)C(C)C)[C@@H](C)CC)[C@@H](C)CC)C(C)C)CSSC[C@@H]2NC(=O)[C@H](CCCCN)NC(=O)CNC(=O)[C@H](Cc3ccccc3)NC(=O)[C@H](CCCNC(=N)N)NC(=O)[C@H](CCSC)NC(=O)CNC(=O)[C@H](CCCNC(=N)N)NC(=O)[C@H](CCCCN)NC(=O)[C@H](CCCCN)NC(=O)[C@@H]3CSSC[C@@H](C(=O)N[C@H](C(=O)N4CCC[C@H]4C(=O)N[C@@H](CCCCN)C(=O)O)[C@@H](C)O)NC(=O)[C@H](Cc4c[nH]cn4)NC(=O)[C@H](CSSC[C@H](NC(=O)[C@H](CCC(N)=O)NC(=O)[C@H](CCCNC(=N)N)NC(=O)[C@H](CO)NC1=O)C(=O)N[C@@H](CC(C)C)C(=O)N[C@@H](CCC(=O)O)C(=O)N1CCC[C@H]1C(=O)N3)NC(=O)[C@H](CCCCN)NC(=O)CNC(=O)[C@H](CC(N)=O)NC(=O)[C@H](CCSC)NC2=O` [A21R] (H-GVIINVKCKISRQCLEPCKKRGMRFGKCMNGKCHCTPK-OH; disulfide 8-28, 14-33, 18-35): 14.9 pM and 2.61 pM.
Regarding `CC[C@H](C)[C@@H]1NC(=O)[C@H](CCCCN)NC(=O)[C@@H](NC(=O)[C@H](CCCCN)NC(=O)[C@@H](NC(=O)[C@H](CC(N)=O)NC(=O)[C@@H](NC(=O)[C@@H](NC(=O)[C@@H](NC(=O)CN)C(C)C)[C@@H](C)CC)[C@@H](C)CC)C(C)C)CSSC[C@@H]2NC(=O)[C@H](CCCCN)NC(=O)CNC(=O)[C@H](Cc3ccccc3)NC(=O)[C@H](CCCNC(=N)N)NC(=O)[C@H](CCSC)NC(=O)CNC(=O)[C@H](C)NC(=O)[C@H](CCCCN)NC(=O)[C@H](CCCCN)NC(=O)[C@@H]3CSSC[C@@H](C(=O)N[C@H](C(=O)N4CCC[C@H]4C(=O)N[C@@H](CCCCN)C(=O)O)[C@@H](C)O)NC(=O)[C@H](Cc4c[nH]cn4)NC(=O)[C@H](CSSC[C@H](NC(=O)[C@H](CCC(N)=O)NC(=O)[C@H](CCCNC(=N)N)NC(=O)[C@H](CO)NC1=O)C(=O)N[C@@H](CC(C)C)C(=O)N[C@@H](C)C(=O)N1CCC[C@H]1C(=O)N3)NC(=O)[C@H](CCCCN)NC(=O)CNC(=O)[C@H](CC(N)=O)NC(=O)[C@H](CCSC)NC2=O` [E16A] (H-GVIINVKCKISRQCLAPCKKAGMRFGKCMNGKCHCTPK-OH; disulfide 8-28, 14-33, 18-35), the results for the IC50 against human Kv1.3 (CHO) and against human Kv1.1 (HEK293) were 21.6 pM and 6.87 pM, respectively.
The matching figures for `CC[C@H](C)[C@@H]1NC(=O)[C@H](CCCCN)NC(=O)[C@@H](NC(=O)[C@H](CCCCN)NC(=O)[C@@H](NC(=O)[C@H](CC(N)=O)NC(=O)[C@@H](NC(=O)[C@@H](NC(=O)[C@@H](NC(=O)CN)C(C)C)[C@@H](C)CC)[C@@H](C)CC)C(C)C)CSSC[C@@H]2NC(=O)[C@H](CCCCN)NC(=O)CNC(=O)[C@H](Cc3ccccc3)NC(=O)[C@H](CCCNC(=N)N)NC(=O)[C@H](CCSC)NC(=O)CNC(=O)[C@H](C)NC(=O)[C@H](CCCCN)NC(=O)[C@H](CCCCN)NC(=O)[C@@H]3CSSC[C@@H](C(=O)N[C@H](C(=O)N4CCC[C@H]4C(=O)N[C@@H](CCCCN)C(=O)O)[C@@H](C)O)NC(=O)[C@H](Cc4c[nH]cn4)NC(=O)[C@H](CSSC[C@H](NC(=O)[C@H](CCC(N)=O)NC(=O)[C@H](CCCNC(=N)N)NC(=O)[C@H](CO)NC1=O)C(=O)N[C@@H](CC(C)C)C(=O)N[C@@H](Cc1cccc4ccccc14)C(=O)N1CCC[C@H]1C(=O)N3)NC(=O)[C@H](CCCCN)NC(=O)CNC(=O)[C@H](CC(N)=O)NC(=O)[C@H](CCSC)NC2=O` [E16Nal] (H-GVIINVKCKISRQCL[1Nal]PCKKAGMRFGKCMNGKCHCTPK-OH; disulfide 8-28, 14-33, 18-35): 9.58 pM and less than 1.52 pM.
The matching figures for `CC[C@H](C)[C@@H]1NC(=O)[C@H](CCCCN)NC(=O)[C@@H](NC(=O)[C@H](CCCCN)NC(=O)[C@@H](NC(=O)[C@H](CC(N)=O)NC(=O)[C@@H](NC(=O)[C@@H](NC(=O)[C@@H](NC(=O)CN)C(C)C)[C@@H](C)CC)[C@@H](C)CC)C(C)C)CSSC[C@@H]2NC(=O)[C@H](CCCCN)NC(=O)CNC(=O)[C@H](Cc3ccccc3)NC(=O)[C@H](CCCNC(=N)N)NC(=O)[C@H](CCSC)NC(=O)CNC(=O)[C@H](C)NC(=O)[C@H](CCCCN)NC(=O)[C@H](CCCCN)NC(=O)[C@@H]3CSSC[C@@H](C(=O)N[C@H](C(=O)N4CCC[C@H]4C(=O)N[C@@H](CCCCN)C(=O)O)[C@@H](C)O)NC(=O)[C@H](Cc4c[nH]cn4)NC(=O)[C@H](CSSC[C@H](NC(=O)[C@H](CCC(N)=O)NC(=O)[C@H](CCCNC(=N)N)NC(=O)[C@H](CO)NC1=O)C(=O)N[C@@H](CC(C)C)C(=O)N[C@@H](CCCNC(=N)N)C(=O)N1CCC[C@H]1C(=O)N3)NC(=O)[C@H](CCCCN)NC(=O)CNC(=O)[C@H](CC(N)=O)NC(=O)[C@H](CCSC)NC2=O` [E16R] (H-GVIINVKCKISRQCLRPCKKAGMRFGKCMNGKCHCTPK-OH; disulfide 8-28, 14-33, 18-35): 10.4 pM and less than 1.52 pM.
As to `CC[C@H](C)[C@@H]1NC(=O)[C@H](CCCCN)NC(=O)[C@@H](NC(=O)[C@H](CCCCN)NC(=O)[C@@H](NC(=O)[C@H](CC(N)=O)NC(=O)[C@@H](NC(=O)[C@@H](NC(=O)[C@@H](NC(=O)CN)C(C)C)[C@@H](C)CC)[C@@H](C)CC)C(C)C)CSSC[C@@H]2NC(=O)[C@H](CCCCN)NC(=O)CNC(=O)[C@H](C)NC(=O)[C@H](CCCNC(=N)N)NC(=O)[C@H](CCSC)NC(=O)CNC(=O)[C@H](C)NC(=O)[C@H](CCCCN)NC(=O)[C@H](CCCCN)NC(=O)[C@@H]3CSSC[C@@H](C(=O)N[C@H](C(=O)N4CCC[C@H]4C(=O)N[C@@H](CCCCN)C(=O)O)[C@@H](C)O)NC(=O)[C@H](Cc4c[nH]cn4)NC(=O)[C@H](CSSC[C@H](NC(=O)[C@H](CCC(N)=O)NC(=O)[C@H](CCCNC(=N)N)NC(=O)[C@H](CO)NC1=O)C(=O)N[C@@H](CC(C)C)C(=O)N[C@@H](CCC(=O)O)C(=O)N1CCC[C@H]1C(=O)N3)NC(=O)[C@H](CCCCN)NC(=O)CNC(=O)[C@H](CC(N)=O)NC(=O)[C@H](CCSC)NC2=O` [F25A] (H-GVIINVKCKISRQCLEPCKKAGMRAGKCMNGKCHCTPK-OH; disulfide 8-28, 14-33, 18-35), the figures for the concentration for half-maximal inhibition (IC50) on human Kv1.3 (CHO) and at human Kv1.1 (HEK293) were 1490 pM and 47.3 pM, respectively.

For the origin of these results see patent publication US20090299044A1 (priority 2006, published 2009).
